Results taken from ChEMBL document CHEMBL6178003, “Reducing Cardiovascular Side Effects of DMT Using Beta-Blockers” (ACS Med Chem Lett, 2025).

Key:
[1] = Half-life in human; type: ADME
[2] = Half-life in iv dosed human; type: ADME, organism-based; details: in vivo

Structure (SMILES) | half-life [1] [min] | half-life [2] [min]
CN(C)CCc1c[nH]c2ccccc12 [N,N-DIMETHYLTRYPTAMINE] | ~10 | –
CCCC(=O)OCOC(=O)C1=C(C)NC(C)=C(C(=O)OC)C1c1cccc(Cl)c1Cl (centres undefined) [CLEVIDIPINE] | ~1 | –
CC1(C)OC[C@@H](COC(=O)CCc2ccc(OC[C@@H](O)CNCCNC(=O)N3CCOCC3)cc2)O1 [LANDIOLOL] | ~4 | –
COC(=O)CCc1ccc(OCC(O)CNC(C)C)cc1 (centres undefined) [ESMOLOL] | – | ~9
